What was measured:
[1] = test system: SW 1116; test: Cytotoxicity against human SW1116 cells by disk diffusion soft agar colony formation assay; assay type: functional, cell-based
[2] = test system: K562; test: Cytotoxicity against human K562 cells by disk diffusion soft agar colony formation assay; assay type: functional, cell-based

Row | SMILES | IC50 ([1]; sw 1116) [nM] | IC50 ([2]; k562) [nM] | IC50 ([1]; Homo sapiens, SW 1116) [nM] | IC50 ([2]; Homo sapiens, K562) [nM]
1 | CC1=C[C@H]2O[C@@H]3C[C@@H](OC(=O)/C=C\C=C\C(OCCC4=CC(=O)OC4)[C@@H](C)O)[C@](C)([C@@]2(COC(=O)/C=C(\C)CCO)CC1)[C@]31CO1 (stereo partly specified) | 3.1 | 1.2 | – | –
2 | CC(=O)[C@@]12CC/C=C\C(=O)O[C@@H]3C[C@H]4O[C@@H]5C=C(C)CC[C@]5(COC(=O)/C=C(\CCO1)[C@H]2O)[C@]3(C)[C@]41CO1 | 1.5 | 1.3 | – | –
3 | CC(=O)[C@@]12CC/C=C\C(=O)O[C@@H]3C[C@H]4O[C@@H]5[C@@H]6C[C@@]4(O)[C@@]3(C)[C@]5(CC[C@]6(C)O)COC(=O)/C=C(\CCO1)[C@H]2O | – | – | 22700 | 31600
4 | CC1=C[C@H]2O[C@@H]3C[C@H]4OC(=O)/C=C\CC[C@]5(C(=O)CO)OCC/C(=C\C(=O)OC[C@@]2(CC1)[C@]4(C)[C@]31CO1)[C@H]5O | 550 | 920 | – | –
5 | CC1=C[C@H]2O[C@@H]3C[C@H]4OC(=O)/C=C\CC[C@@]56OCC/C(=C\C(=O)OC[C@@]2(CC1)[C@]4(C)[C@]31CO1)[C@H]5O[C@@H](O)[C@@H]6O | 1.5 | 1.1 | – | –
6 | CC1=C[C@H]2O[C@@H]3C[C@H]4OC(=O)/C=C\C=C\[C@@H]([C@@H](C)O)OCC/C(C)=C/C(=O)OC[C@@]2(CC1)[C@]4(C)[C@]31CO1 | 33 | 1 | – | –
7 | CC(=O)[C@@]12CC/C=C\C(=O)O[C@@H]3C[C@H]4O[C@@H]5[C@@H]6C[C@@]4(O)[C@@]3(C)[C@]5(CC[C@]6(C)O)COC(=O)/C=C(\CCO1)[C@@H]2O | – | – | 10600 | 970
8 | CC(=O)O[C@@H]1/C2=C/C(=O)OC[C@@]34CC[C@](C)(O)[C@H]5C[C@]6(O)[C@@H](C[C@@H](OC(=O)/C=C\CC[C@]1(C(C)=O)OCC2)[C@]36C)O[C@H]54 | – | – | 4250 | 1530
9 | C[C@]12[C@H]3C[C@H]4O[C@@H]5[C@H](C[C@]41O)[C@@](C)(O)CC[C@@]52COC(=O)/C=C1\CCO[C@]2(CC/C=C\C(=O)O3)[C@@H]1OC(=O)[C@@H]2O | – | – | 21100 | 16000
10 | C/C1=C\C(=O)OC[C@]23CCC(CO)=C[C@H]2O[C@@H]2C[C@@H](OC(=O)/C=C\C=C\[C@H]([C@@H](C)O)OCC1)[C@@]3(C)[C@]21CO1 | 9060 | 7130 | – | –
11 | C[C@]12[C@H]3C[C@H]4O[C@@H]5[C@H](C[C@]41O)[C@@](C)(O)CC[C@@]52COC(=O)/C=C1\CCO[C@@]2(CC/C=C\C(=O)O3)[C@H](O)C(=O)O[C@H]12 | – | – | 11600 | 16000
12 | CC(=O)[C@@]12CC/C=C\C(=O)O[C@@H]3C[C@H]4O[C@@H]5C=C(CO)CC[C@]5(COC(=O)/C=C(\CCO1)[C@H]2O)[C@]3(C)[C@]41CO1 | 180 | 2870 | – | –
13 | CC1=C[C@H]2O[C@@H]3C[C@H]4OC(=O)/C=C\CC[C@@]56OCC/C(=C\C(=O)OC[C@@]2(CC1)[C@]4(C)[C@]31CO1)[C@H]5OC(=O)[C@@H]6O | 200 | 56 | – | –
14 | C[C@]12[C@H]3C[C@H]4O[C@@H]5[C@H](C[C@]41O)[C@@](C)(O)CC[C@@]52COC(=O)/C=C1\CCO[C@@](C(=O)CO)(CC/C=C\C(=O)O3)[C@@H]1O | – | – | 23100 | 26700
15 | CC1=C[C@H]2O[C@@H]3C[C@H]4OC(=O)/C=C\CC[C@@]5([C@H](C)O)OCC/C(=C\C(=O)OC[C@@]2(CC1)[C@]4(C)[C@]31CO1)[C@@H]5O | 2270 | 510 | – | –
16 | C/C1=C\C(=O)OC[C@]23CCC(CO)=C[C@H]2O[C@@H]2C[C@@H](OC(=O)/C=C\C=C\C(=O)OCC1)[C@@]3(C)[C@]21CO1 | 160 | 6.4 | – | –
17 | C[C@]12[C@H]3C[C@H]4O[C@@H]5[C@H](C[C@]41O)[C@@](C)(O)CC[C@@]52COC(=O)/C=C1\CCO[C@]2(CC/C=C\C(=O)O3)[C@@H]1O[C@H](O)[C@H]2O | – | – | 570 | 8200
18 | CC1=C[C@H]2O[C@@H]3C[C@H]4OC(=O)/C=C\C=C\[C@H]([C@@H](C)O)OCC/C(CO)=C/C(=O)OC[C@@]2(CC1)[C@]4(C)[C@]31CO1 | 7920 | 3150 | – | –
19 | C[C@@H]1CCOC(=O)/C=C/C=C\C(=O)O[C@@H]2C[C@H]3O[C@@H]4C=C(CO)CC[C@]4(COC(=O)[C@H]1O)[C@]2(C)[C@]31CO1 [16-HYDROXY VERRUCARIN A] | 12 | 1.7 | – | –
20 | O=c1[nH]cc(F)c(=O)[nH]1 [FLUOROURACIL] | – | – | 76900 | 32900
21 | CC1=C[C@H]2O[C@@H]3C[C@H]4OC(=O)/C=C\C=C\[C@H]([C@@H](C)O)OCC[C@@H](C)[C@H](O)C(=O)OC[C@@]2(CC1)[C@]4(C)[C@]31CO1 [RORIDIN A] | 210 | 7.1 | – | –
22 | CC1=C[C@H]2O[C@@H]3C[C@H]4OC(=O)/C=C\C=C\[C@H]([C@@H](C)O)OCC/C(C)=C/C(=O)OC[C@@]2(CC1)[C@]4(C)[C@]31CO1 [RORIDIN E] | 39 | 540 | – | –
23 | CC1=C[C@H]2O[C@@H]3C[C@H]4OC(=O)/C=C\C=C\C(=O)OCC[C@@H](C)[C@H](O)C(=O)OC[C@@]2(CC1)[C@]4(C)[C@]31CO1 [VERRUCARIN A] | 1.8 | 3 | – | –

Source: ChEMBL document CHEMBL4392866, “Cytotoxic Trichothecene Macrolides Produced by the Endophytic Myrothecium roridum” (J Nat Prod, 2019)
